Reference: patent US9040713B2, “Methods of managing blood sugar levels and compositions related thereto” (EMORY UNIVERSITY, priority 2010, dated 2015)

What was measured:
EGFR = EGFR phosphorylation in cells (immunoblotting); assay type: cell-based; details: HEK293 cells, 10 μM, 15 min
Description: (§1) (A) DDN and CSN activate IR and its downstream signaling in CHO-IR cells. […] The cell lysates were analyzed by immunoblotting with anti-phospho-IR antibodies, or immunoprecipitated by PY20 and analyzed using anti-IR and anti-IRS-1, respectively. (B) DDN and CSN induce IR phosphorylation in a dose-dependent manner. CHO-IR cells were treated with the small compounds at different concentrations for 15 min, and the IR phosphorylation was monitored by immunoprecipitation and immunoblotting. (C) DDN, CSN induce IR phosphorylation in a time-dependent manner. […] (D) DDN and CSN induce IR phosphorylation and its downstream signaling in a dose-dependent manner. […] (E) DDN and CSN cannot induce IGF-1R or EGFR phosphorylation. CHO-IGF-1R or HEK293 cells were treated with EGF (100 nM), IGF-1 (100 nM), DDN (10 μM) or CSN (10 μM) for 15 min. The cell lysates were analyzed by immunoblotting with anti-pIGF-1R and anti-pEGFR.
(§2) (A) Chemical structure of 4524-E7. (B) Effect of 4524-E7 and other 1,4-naphthoquinone derivatives on IR phosphorylation in CHO-IR cells. CHO-IR cells were cultured in 96-well plates and treated with 5 μM compounds for 15 min at 37 C. Cells were lysed, and IR phosphorylations were tested by ELISA. The IR phosphorylation activities of the tested compounds were expressed as a percentage of the vehicle. (C) 4524-E7 and 1,4-naphthoquinone derivates activate IR and its downstream signaling in CHO-IR cells. […] The cell lysates were analyzed by immunoblotting with various indicated antibodies. The phosphorylated IR was immunoprecipitated using PY20 and analyzed by immunoblotting with anti-IR13 antibody. […] The phosphorylation of each receptor was determined by Western blot using specific antibodies as indicated. (E) 4524-E7 activates IR through its ICD. Upper panel: Diagram of chimaeric receptors. Lower panel: His-tagged wild-type IR, IGFR-IR, IR-IGFR, and IR-EGFR constructs were transfected into CHO cells followed vehicle or 5 μM 4524-E7 treatment for 30 min. Then the cells were lysated and the transfected receptor fused to His tag were pulled down with Ni+ beads, followed by western blot against anti-p-Tyr and anti-His. The cell lysates were tested with anti-p-Akt and anti-Akt.
(§3) A cell-based ELISA assay was developed with an IR stably transfected Chinese Hamster Ovary (CHO-IR) cell line. The cells were seeded in a 96-well plate and treated with 10 μM (15 min) compounds. The cell lysates were subjected to the sandwich ELISA using immobilized anti-phosphotyrosine antibody and anti-IR antibody. […] Among the positive hits, 1,4-naphthoquinone compounds were identified that can selectively activate IR but not IGF-1R (FIG. 1A). […] Total IR tyrosine phosphorylation was further confirmed by immunoprecipitation using anti-phosphotyrosine (PY20) antibody (FIG. 2A, 3rd panel). […]

IR = IR (Homo sapiens, UniProt P06213); assay: Immunoblotting of IR phosphorylation and downstream signaling in CHO-IR cells; assay type: cell-based; set-up: expressed in transfected cells; host or cells: CHO (CHO-IR, gift from Dr. Nicholas Webster, UCSD)
Sequence of IR (P06213 763-1382 limits assumed): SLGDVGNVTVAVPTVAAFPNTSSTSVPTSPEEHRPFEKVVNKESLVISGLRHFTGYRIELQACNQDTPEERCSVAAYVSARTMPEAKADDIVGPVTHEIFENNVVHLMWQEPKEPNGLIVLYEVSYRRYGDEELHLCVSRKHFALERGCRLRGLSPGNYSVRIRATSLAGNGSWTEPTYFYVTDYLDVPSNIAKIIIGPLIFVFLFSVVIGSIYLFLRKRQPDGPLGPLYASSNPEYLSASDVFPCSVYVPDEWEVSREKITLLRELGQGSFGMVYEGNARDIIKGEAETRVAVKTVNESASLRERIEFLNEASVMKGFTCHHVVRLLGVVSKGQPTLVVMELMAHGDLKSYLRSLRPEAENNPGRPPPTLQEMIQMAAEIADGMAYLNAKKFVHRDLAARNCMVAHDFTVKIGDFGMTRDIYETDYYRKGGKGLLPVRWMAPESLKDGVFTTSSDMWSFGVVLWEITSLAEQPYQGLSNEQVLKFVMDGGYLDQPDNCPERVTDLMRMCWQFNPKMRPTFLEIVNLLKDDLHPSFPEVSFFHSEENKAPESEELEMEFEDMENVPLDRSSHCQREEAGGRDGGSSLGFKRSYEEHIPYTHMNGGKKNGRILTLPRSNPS
Sequence of IR (P06213 28-758 limits assumed): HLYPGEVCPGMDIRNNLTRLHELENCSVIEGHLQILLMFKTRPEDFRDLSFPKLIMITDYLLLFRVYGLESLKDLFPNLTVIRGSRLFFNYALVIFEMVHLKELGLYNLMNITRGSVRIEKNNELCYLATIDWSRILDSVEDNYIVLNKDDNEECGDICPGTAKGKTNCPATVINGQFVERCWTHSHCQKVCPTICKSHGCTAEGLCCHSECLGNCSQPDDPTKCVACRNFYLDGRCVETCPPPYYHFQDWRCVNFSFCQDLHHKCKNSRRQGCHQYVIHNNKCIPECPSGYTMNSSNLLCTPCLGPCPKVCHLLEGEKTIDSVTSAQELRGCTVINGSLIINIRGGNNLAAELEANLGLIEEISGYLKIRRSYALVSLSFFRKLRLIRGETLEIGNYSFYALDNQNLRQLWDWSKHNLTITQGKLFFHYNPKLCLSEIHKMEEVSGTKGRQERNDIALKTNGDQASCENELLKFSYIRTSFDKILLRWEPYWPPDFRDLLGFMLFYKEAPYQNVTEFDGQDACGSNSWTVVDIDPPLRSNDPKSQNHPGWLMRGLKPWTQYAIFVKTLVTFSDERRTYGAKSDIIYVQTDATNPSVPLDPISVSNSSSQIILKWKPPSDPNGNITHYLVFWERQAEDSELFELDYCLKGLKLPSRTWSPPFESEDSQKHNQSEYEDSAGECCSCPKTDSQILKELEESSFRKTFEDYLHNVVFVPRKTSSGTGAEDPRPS
Description: The cell lysates were analyzed by immunoblotting with anti-phospho-IR antibodies, or immunoprecipitated by PY20 and analyzed using anti-IR and anti-IRS-1, respectively. […] The cell lysates were analyzed by immunoblotting with anti-pIGF-1R and anti-pEGFR. […]
A cell-based ELISA assay was developed with an IR stably transfected Chinese Hamster Ovary (CHO-IR) cell line. […] The cell lysates were subjected to the sandwich ELISA using immobilized anti-phosphotyrosine antibody and anti-IR antibody.

IGF-1R = IGF-1R phosphorylation in cells (immunoblotting); assay type: cell-based; details: CHO-IGF-1R cells, 10 μM, 15 min
Description: as §1, §2, §3

C57BL/6J mice = assay: Lethality after administration to C57BL/6J mice; assay type: in vivo, mouse; details: intraperitoneal, even at low doses (1 mg/kg)
Description: However, CSN was lethal to the mice even at low doses (1 mg/kg) (data not shown). […] The kinetics of DDN in lowering blood glucose is different from that of insulin.

Structure (SMILES): CSC1=C(SC)C(=O)c2ccccc2C1=O [CSN, 2,3-Bis-methylsulfanyl-1,4-naphthoquinone]
- EGFR activation (EGFR): Neither IGF-1R nor EGFR was activated
- time at which IR activation peaked (IR; 5 μM): 60 min
- time at which IR phosphorylation starts (IR; 5 μM): 5 to 15 min
- tyrosine phosphorylation of IRS-1 (IR; 5 μM, 15 min): also increased
- tyrosine phosphorylation of the IR β subunit in Y1146 and Y1158/1162/1163 (IR; 5 μM, 15 min): strongly stimulated
- concentration stimulating the IR signal cascades (IR; DDN or CSN 30 min, insulin 15 min): 5 µM
- IGF-1R activation (IGF-1R): Neither IGF-1R nor EGFR was activated
- lethality (C57BL/6J mice): lethal to the animals
